The values below come from patent US20250382250A1, “STILBENE DERIVATIVE AS AHR AGONIST AND USE THEREOF” (NANJING GRITPHARMACO., LTD., priority 2022, published 2025).

Data set [1] can be described thus: Drug permeation rate test, in vitro diffusion through semipermeable membrane. The conditions noted are these: ointments: 2# 1.2 wt %, 6# 1.2 wt %, benvitimod 1.0 wt %, 32° C. Type of data set: in vitro ADME. The procedure:
(§1) Test compounds: compound 2 #ointment, 1.2 wt %; compound 6 #ointment, 1.2 wt %; benvitimod ointment, 1.0 wt %;
[drawing 90] • (1) Preparation of semipermeable membrane: The semipermeable membrane, which had been prepared in advance, was taken out from the refrigerator; • (2) Preparation of receiving liquid: 100 mL of polyethylene glycol 400 solution was brought to a final volume of 250 mL with normal saline. The mixture was mixed well and stored at 4° C. Before each permeation in the receiving compartment, the system was preheated to 32° C.; • (3) In vitro diffusion test: A drug transdermal diffusion apparatus was used to fix the processed semipermeable membrane between the supply and receiving compartments. A constant temperature water bath circulation at 32° C. was maintained. The system was equilibrated for 30 min. Upon each replacement of the receiving liquid, the air at the lower layer was exhausted. About 0.5 g of the ointment was evenly smeared in the supply compartment. The system was stirred with a magnetic stirring at a rotation speed of 600 r/min. At 0.5, 1, 2, 4, 6, and 24 h, 1 mL of sample liquid was taken out from the receiving compartment, and simultaneously, an equal amount of fresh receiving liquid at the same temperature was added;
The sampling time points were 0.5, 1, 2, 4, 6, and 24 h, and 1 mL of sample was directly transferred into a liquid phase vial. Simultaneously, an equal amount of fresh receiving liquid at the same temperature was added. The liquid phase detection was conducted to calculate the drug permeation rate.

For the next data set, the target named is T1, AhR (Homo sapiens, UniProt P35869).
T1 construct: expressed in transfected cells; host or cells: HepG2
T1 sequence (P35869 11-848): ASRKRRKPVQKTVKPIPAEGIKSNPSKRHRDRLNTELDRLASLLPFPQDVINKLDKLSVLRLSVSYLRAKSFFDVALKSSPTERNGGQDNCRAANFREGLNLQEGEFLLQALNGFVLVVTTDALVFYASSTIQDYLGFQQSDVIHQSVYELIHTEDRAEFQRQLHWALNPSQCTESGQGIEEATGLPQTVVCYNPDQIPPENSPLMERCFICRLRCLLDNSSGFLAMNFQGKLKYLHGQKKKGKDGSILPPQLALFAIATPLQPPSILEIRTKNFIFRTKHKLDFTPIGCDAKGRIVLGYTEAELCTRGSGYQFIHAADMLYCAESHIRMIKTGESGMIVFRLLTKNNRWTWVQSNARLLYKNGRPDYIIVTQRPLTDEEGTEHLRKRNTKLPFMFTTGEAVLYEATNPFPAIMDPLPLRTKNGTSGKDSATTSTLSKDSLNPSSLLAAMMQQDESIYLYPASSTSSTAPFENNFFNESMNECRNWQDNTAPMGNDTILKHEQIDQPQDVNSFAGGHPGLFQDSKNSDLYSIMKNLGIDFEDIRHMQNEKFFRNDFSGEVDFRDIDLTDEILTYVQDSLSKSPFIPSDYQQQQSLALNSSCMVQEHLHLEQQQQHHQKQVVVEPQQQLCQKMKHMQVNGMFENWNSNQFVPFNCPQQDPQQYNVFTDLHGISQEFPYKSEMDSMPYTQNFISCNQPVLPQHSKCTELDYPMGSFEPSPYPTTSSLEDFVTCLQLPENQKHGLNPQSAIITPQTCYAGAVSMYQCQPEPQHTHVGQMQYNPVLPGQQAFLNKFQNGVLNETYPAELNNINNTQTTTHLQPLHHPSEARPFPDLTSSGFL
The experiment in a line: AhR agonism luciferase reporter gene assay in transfected HepG2 cells. As to conditions: 16 h, ratio of treatment group to blank. It counts as cell-based. The procedure:
When the cell confluence reached 80%, the culture medium was replaced with a fresh one, and the transfection working solution was added for transfection overnight. The formula of the working solution is as follows: 1 mL of Opti-MEM+7.5 μg of pCMV-AHR+7.5 μg of pTK-3×DRE-Luc+30 μL of lipo6000. • (2) Cell plating: The transfected cells were digested, prepared into a cell suspension at a concentration of 3×10^5 cells/mL, and then plated on a 96-well plate at 100 µL/well for adherent culture overnight. • (3) Formulation
The prepared drug-containing culture media and a blank culture medium were added to the 96-well plate described above at 100 μL/well.
Background: Reporter assays use an easily measured gene product as a stand-in for the process of interest.

The next data set concerns TNFa. The experiment in a line: Regulatory effect on cytokine secretion in PHA-stimulated PBMCs: TNFa. Type of data set: cell-based. As to conditions: for TNFa: PBMCs, 15 μg/mL PHA, 24 h (PHA group 3649.21). The procedure: (§2) • (1) Cells: […]; • (2) Cell plating and treatment: After the PBMCs were taken out from the liquid nitrogen tank and thawed, 80 μL of culture medium was added to a 96-well plate, and the cells were added at 200,000 cells/well. The culture media containing 2 μM or 0.2 μM compound 2 #, compound 6 #, or reference 1 # were added to the 96-well plate at 80 μL, at a final drug concentration of 1 μM or 0.1 μM per well. The plate was let stand for 1 h for pretreatment. After the pretreatment, the drug-containing medium was discarded, and 1 μM or 0.1 μM solution containing 15 μg/mL PHA (phytohemaggluyinin) was added at 80 μL/well. After 24 h of stimulation, the content of cytokines in the culture medium was detected. • Blank control group: The cells were treated with a normal culture medium with no drugs; • PHA group: A culture medium containing 15 μg/mL PHA but no compounds of the present disclosure was added at 80 μL/well.

Data set [2] can be described thus: Ointment diffusion test, ex vivo rabbit skin. The conditions noted are these: ointments: 2# 1.2 wt %, 6# 1.2 wt %, benvitimod 1.0 wt %, 32° C. It counts as in vitro ADME. The procedure: as §1
• (1) Preparation of ex vivo rabbit skin • (2) Preparation of receiving liquid: 100 mL of polyethylene glycol 400 solution was brought to a final volume of 250 mL with normal saline. The mixture was mixed well and stored at 4° C. Before each permeation in the receiving compartment, the system was preheated to 32° C. • (3) In vitro transdermal test: A drug transdermal diffusion apparatus was used to fix the processed rabbit skin between the supply and receiving compartments, with the stratum corneum facing the supply compartment. A constant temperature water bath circulation at 32° C. was maintained. The system was equilibrated for 30 min. Upon each replacement of the receiving liquid, the air at the lower layer was exhausted, and the liquid droplets on the skin surface were removed with paper. 0.5 g of the ointment was evenly smeared in the supply compartment. The system was stirred with a magnetic stirring at a rotation speed of 600 r/min. At 0.5, 1, 2, 3, 4, 5, 7, 9, 12, and 24 h, 1 mL of sample liquid was taken out from the receiving compartment and transferred into a liquid phase vial, and simultaneously, an equal amount of fresh receiving liquid at the same temperature was added. The liquid phase detection was conducted to calculate the drug permeation rate.

In another data set the test system is IL4. The experiment in a line: Regulatory effect on cytokine secretion in PHA-stimulated PBMCs: IL4. Type of data set: cell-based. The conditions noted are these: for IL4: PBMCs, 15 μg/mL PHA, 24 h (PHA group 9.42). The method, then: as §2

With `CC(C)c1c(O)cc(/C=C/c2ccccc2)cc1O` [Reference 1#, Benvitimod, reference compound], the “24-hour drug permeation rate (rank order)” value in data set [1] and in data set [2] was “benvitimod >2 #>6 #” throughout. Moreover, the “AhR receptor agonistic fold” value at AhR (drug concentration 0.1 μM) is reported as 3.2 ± 1.2 fold; on AhR (drug concentration 1 μM), 10.6 ± 1.0 fold. The TNFa in the data set with TNFa (0.1 μM) is recorded as 2559.02 pg/mL; with TNFa (1 μM) it was 2426.93 pg/mL. Further, the IL4 with IL4 (0.1 μM) is 9.30 pg/mL; in the data set with IL4 (1 μM) it was 5.63 pg/mL.

Regarding `Oc1cc(/C=C/c2ccc(F)cc2)cc(O)c1C1CCCCC1` [Compound 6, (E)-2-cyclohexyl-5-(4-fluorostyryl)-1,3-benzenediol], the “24-hour drug permeation rate (rank order)” value in data set [1] and in data set [2] was “benvitimod >2 #>6 #” throughout. In addition, the “AhR receptor agonistic fold” value at AhR (drug concentration 0.1 μM) was found to be 6.6 ± 0.1 fold; on AhR (drug concentration 1 μM) it was 25.9 ± 0.4 fold. In addition, the TNFa stood at 1433.29 pg/mL with TNFa (0.1 μM) and 810.71 pg/mL in the data set on TNFa (1 μM). Moreover, the “inhibitory effect on TNFa relative to reference 1# (benvitimod)” value in the data set with TNFa (1 μM) was determined as 2 folds. In addition, the IL4 in the data set with IL4 (0.1 μM) is 4.62 pg/mL; with IL4 (1 μM) it was 2.75 pg/mL. In addition, in the data set on IL4 (1 μM), the “inhibitory effect on IL4 relative to reference 1# (benvitimod)” value came to 2 folds.
